Source: PubChem BioAssay (NCI)
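Cultured in 96-well plates, cells were exposed to test compound for 48 hours across five concentrations. TGI marks complete inhibition of growth.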

Key:
Assay in all cases: NCI anticancer screen, dose series, 48 h
DU-145 prostate = tested on: DU-145 prostate
786-0 renal = tested on: 786-0 renal
IGROV1 ovarian = tested on: IGROV1 ovarian
MDA-MB-231 breast = tested on: MDA-MB-231 breast
SN12C renal = tested on: SN12C renal
U251 CNS = tested on: U251 CNS
RXF 393 renal = tested on: RXF 393 renal
UACC-257 melanoma = tested on: UACC-257 melanoma
T-47D breast = tested on: T-47D breast
OVCAR-3 ovarian = tested on: OVCAR-3 ovarian
SR leukemia = tested on: SR leukemia
MDA-N = tested on: MDA-N
NCI-H23 lung = tested on: NCI-H23 lung
MALME-3M melanoma = tested on: MALME-3M melanoma
SK-OV-3 ovarian = tested on: SK-OV-3 ovarian
SK-MEL-2 melanoma = tested on: SK-MEL-2 melanoma
NCI-H522 lung = tested on: NCI-H522 lung
KM12 colon = tested on: KM12 colon
MCF7 breast = tested on: MCF7 breast
HOP-62 NSCLC = tested on: HOP-62 NSCLC
MOLT-4 leukemia = tested on: MOLT-4 leukemia
COLO 205 colon = tested on: COLO 205 colon
K-562 leukemia = tested on: K-562 leukemia
CAKI-1 renal = tested on: CAKI-1 renal
HCT-116 colon = tested on: HCT-116 colon
NCI/ADR-RES ovarian = tested on: NCI/ADR-RES ovarian
MDA-MB-435 = tested on: MDA-MB-435
UACC-62 melanoma = tested on: UACC-62 melanoma
OVCAR-5 ovarian = tested on: OVCAR-5 ovarian
SW-620 colon = tested on: SW-620 colon
SNB-19 CNS = tested on: SNB-19 CNS
NCI-H226 lung = tested on: NCI-H226 lung
PC-3 prostate = tested on: PC-3 prostate
A549 NSCLC = tested on: A549 NSCLC
M14 melanoma = tested on: M14 melanoma
RPMI-8226 leukemia = tested on: RPMI-8226 leukemia
HCT-15 colon = tested on: HCT-15 colon
SK-MEL-28 melanoma = tested on: SK-MEL-28 melanoma
BT-549 breast = tested on: BT-549 breast
LOX IMVI melanoma = tested on: LOX IMVI melanoma
SF-539 CNS = tested on: SF-539 CNS
SF-295 CNS = tested on: SF-295 CNS
HT29 colon = tested on: HT29 colon
HCC-2998 colon = tested on: HCC-2998 colon
A498 renal = tested on: A498 renal
OVCAR-4 ovarian = tested on: OVCAR-4 ovarian
EKVX NSCLC = tested on: EKVX NSCLC
OVCAR-8 ovarian = tested on: OVCAR-8 ovarian
CCRF-CEM leukemia = tested on: CCRF-CEM leukemia
ACHN renal = tested on: ACHN renal
HOP-92 NSCLC = tested on: HOP-92 NSCLC
UO-31 renal = tested on: UO-31 renal
SK-MEL-5 melanoma = tested on: SK-MEL-5 melanoma
TK-10 renal = tested on: TK-10 renal
SF-268 CNS = tested on: SF-268 CNS

CC1(C)C[C@H]2[C@H](O)C(CO)=C3C(=O)[C@@H](O)[C@]3(C)[C@H]2C1
TGI (DU-145 prostate): > 100 µM
TGI (786-0 renal): > 100 µM
TGI (IGROV1 ovarian): > 100 µM
TGI (MDA-MB-231 breast): > 100 µM
TGI (SN12C renal): > 100 µM
TGI (U251 CNS): > 100 µM
TGI (RXF 393 renal): > 100 µM
TGI (UACC-257 melanoma): > 100 µM
TGI (T-47D breast): > 100 µM
TGI (OVCAR-3 ovarian): > 100 µM
TGI (SR leukemia): > 100 µM
TGI (MDA-N): > 100 µM
TGI (NCI-H23 lung): > 100 µM
TGI (MALME-3M melanoma): > 100 µM
TGI (SK-OV-3 ovarian): > 100 µM
TGI (SK-MEL-2 melanoma): > 100 µM
TGI (NCI-H522 lung): > 100 µM
TGI (KM12 colon): > 100 µM
TGI (MCF7 breast): > 100 µM
TGI (HOP-62 NSCLC): > 100 µM
TGI (MOLT-4 leukemia): 53.3 µM
TGI (COLO 205 colon): > 100 µM
TGI (K-562 leukemia): > 100 µM
TGI (CAKI-1 renal): > 100 µM
TGI (HCT-116 colon): > 100 µM
TGI (NCI/ADR-RES ovarian): > 100 µM
TGI (MDA-MB-435): > 100 µM
TGI (UACC-62 melanoma): > 100 µM
TGI (OVCAR-5 ovarian): > 100 µM
TGI (SW-620 colon): > 100 µM
TGI (SNB-19 CNS): > 100 µM
TGI (NCI-H226 lung): > 100 µM
TGI (PC-3 prostate): > 100 µM
TGI (A549 NSCLC): > 100 µM
TGI (M14 melanoma): > 100 µM
TGI (RPMI-8226 leukemia): > 100 µM
TGI (HCT-15 colon): > 100 µM
TGI (SK-MEL-28 melanoma): > 100 µM
TGI (BT-549 breast): > 100 µM
TGI (LOX IMVI melanoma): > 100 µM
TGI (SF-539 CNS): > 100 µM
TGI (SF-295 CNS): > 100 µM
TGI (HT29 colon): > 100 µM
TGI (HCC-2998 colon): > 100 µM
TGI (A498 renal): > 100 µM
TGI (OVCAR-4 ovarian): > 100 µM
TGI (EKVX NSCLC): > 100 µM
TGI (OVCAR-8 ovarian): > 100 µM
TGI (CCRF-CEM leukemia): 84 µM
TGI (ACHN renal): > 100 µM
TGI (HOP-92 NSCLC): > 100 µM
TGI (UO-31 renal): > 100 µM
TGI (SK-MEL-5 melanoma): > 100 µM
TGI (TK-10 renal): > 100 µM
TGI (SF-268 CNS): > 100 µM
